According to US20250129120A1, “PEPTIDE HAVING ACTIVITY FOR PREVENTING HAIR LOSS OR PROMOTING HAIR GROWTH, AND USE THEREOF” (CAREGEN CO., LTD., priority 2021, published 2025):

Experiments:
[1] = test system: LEF-1; assay: RT-PCR of LEF-1 expression in HHFDPC; format: cell-based, human; details: peptide 500 nM, 5 μM, and 50 μM, 24 hours, FIG. 4
Protocol: (§1) Furthermore, in order to determine whether the β-catenin moves to the nucleus and is activated to affect proliferation and differentiation, whether the expression of LEF-1, c-Myc and cyclin D1 (cyclin D1), which act as downstream factors, increases with β-catenin activation was confirmed through RT-PCR. Specifically, in the same manner as the previous Western blotting experiment, HHFDPC cells were cultured, treated with the peptides of the Preparation Example of the present invention at concentrations of 500 nM, 5 μM, and 50 μM, respectively, and cultured at 37° C. for 24 hours. After washing the cells with PBS, RNA was isolated by treating them with 300 […] of easy blue (intron, Korea). Then, CDNA was synthesized using a cDNA synthesis kit (enzynomics, Korea) by quantifying it with nano drop, and PCR was performed using primers for LEF-1, c-Myc and cyclin D1 (base sequences of the primer are listed in Table 2 below) and PCR premix (enzynomics, Korea). Electrophoresis was performed on a 1.5% agarose gel, and then the mRNA of LEF-1, c-Myc and cyclin D1 was detected using a band analysis system (Bio-Rad gel image system).

[2] = test system: cyclin D1; assay: RT-PCR of cyclin D1 expression in HHFDPC; format: cell-based, human; details: peptide 500 nM, 5 μM, and 50 μM, 24 hours, FIG. 4
Protocol: as §1

[3] = test system: c-Myc; assay: RT-PCR of c-Myc expression in HHFDPC; format: cell-based, human; details: peptide 500 nM, 5 μM, and 50 μM, 24 hours, FIG. 4
Protocol: as §1

[4] = test system: Keratin 19; assay: RT-PCR of Keratin 19 expression in HHORSC; format: cell-based, human; details: peptide 500 nM, and 50 μM, 72 hours, FIG. 6
Protocol: (§2) Specifically, HHORSC (human hair outer root sheath cell, Sciencell, USA) was seeded in a 6-well culture plate at 4×10^5 cells/well and then cultured in MSC complete medium (mesenchymal stem cell complete media) for 24 hours. Next, the medium was replaced with serum free MSC complete medium and cultured again for 24 hours. Then, the HHORSC was treated with the peptide of SEQ ID NO: 1 prepared in the Preparation Example at concentrations of 500 nM, […], and 50 μM, respectively, and cultured at 37° C. for 72 hours. As a positive control, EGF was treated at a concentration of 50 nM, and as a negative control, HHORSC without any treatment was used. After washing with PBS, RNA was isolated by treating with 300 ? of easy blue (intron, Korea). Then, cDNA was synthesized using a cDNA synthesis kit (enzynomics, Korea) by quantification using nano drop, and PCR was performed using primers for Ha3-II, Keratin 14, and Keratin 19 (the base sequences of primer are shown in Table 3 below) and PCR premix (enzynomics, Korea). Electrophoresis was performed on a 1.5% agarose gel, and the mRNAs of Ha3-II, Keratin 14, and Keratin 19 were detected using a band analysis system (Bio-Rad gel image system).

[5] = test system: p-ERK; assay: Western blotting of phosphorylated ERK in HHFDPC; format: cell-based, human; details: peptide 500 nM, 5 μM, and 50 µM, 24 hours, FIG. 2
Protocol: (§3) First, phosphorylated forms of AKT and ERK, which act as signaling molecules related to the proliferation of HHFDPC, were confirmed through Western blotting. Specifically, HHFDPC as in [Experiment Example 1-1] above was seeded at 4×10^5 cells/well in a 6-well culture plate, cultured in MSC complete medium (mesenchymal stem cell complete media) for 24 hours, and then the medium was replaced with serum free MSC complete medium and cultured for another 24 hours. Then, the HHFDPC was treated with the peptide of SEQ ID NO: 1 prepared in the Preparation Example at concentrations of 500 nM, 5 μM, and 50 µM, respectively, and cultured at 37° C. for 24 hours. As a positive control, minoxidil was treated at a concentration of 1 μM, and as a negative control, HHFDPC without any treatment was used. Then, Western blotting was performed to detect phosphorylated AKT and phosphorylated ERK. After washing with PBS, the cells were treated with 100 ? of lysis buffer to destroy cells, thereby obtaining cell lysate. After electrophoresis using a 10% SDS-PAGE gel, it was transferred to a PVDF membrane and blocked using 5% skim milk at room temperature for 30 minutes. […] After washing again with 0.1% PBS-T (0.1% Tween-20 in PBS) three times for 15 minutes each, p-AKT and p-ERK were detected by treatment with ECL solution (GE Healthcare, USA).

[6] = test system: p-AKT; assay: Western blotting of phosphorylated AKT in HHFDPC; format: cell-based, human; details: peptide 500 nM, 5 μM, and 50 µM, 24 hours, FIG. 2
Protocol: as §3

[7] = test system: Keratin 14; assay: RT-PCR of Keratin 14 expression in HHORSC; format: cell-based, human; details: peptide 500 nM, and 50 μM, 72 hours, FIG. 6
Protocol: as §2

[8] = test system: DKK-1 protein (dickkopf-related protein 1); assay: Western blotting of DKK-1 protein in DHT-treated HHFDPC; format: cell-based, human; details: HHFDPC with DHT 100 nM; peptide 500 nM, 5 μM, and 50 μM; 24 hours; vs negative control (DHT only); FIG. 5
Protocol: DKK-1 protein (dickkopf-related protein 1) is a hair loss-related protein known to be highly expressed in individuals with hair loss, especially male pattern hair loss, and its expression is known to be promoted by hormones such as DHT (Dihydrotestosterone). Accordingly, the expression of DKK-1 protein was induced by treating HHFDPC cells with DHT together with the peptide according to the Preparation Example of the present invention, and then the expression level of DKK-1 was measured through Western blotting to determine whether there was an effect of suppressing the expression of DKK-1 protein.
Specifically, HHFDPC as in [Experiment Example 1-1] was seeded in a 6-well culture plate at 4×10^5 cells/well and then cultured in MSC complete medium (mesenchymal stem cell complete media) for 24 hours. Next, the medium was replaced with serum free MSC complete medium and cultured again for 24 hours. In addition, the HHFDPC was treated with the peptide of SEQ ID NO: 1 prepared in Preparation Example at concentrations of 500 nM, 5 μM, and 50 μM, respectively, and at this time, DHT, an expression inducer of DKK-1 protein, was simultaneously treated at a concentration of 100 nM and then cultured at 37° C. for 24 hours. […] After washing again with 0.1% PBS-T (0.1% Tween-20 in PBS) three times for 15 minutes each, DKK-1 protein was detected by treatment with ECL solution (GE Healthcare, USA).

[9] = test system: Ha3-II; assay: RT-PCR of Ha3-II expression in HHORSC; format: cell-based, human; details: peptide 500 nM, 5 µM, and 50 μM, 72 hours, FIG. 6
Protocol: as §2

[10] = test system: MSX2; assay: RT-PCR of MSX2 expression in HHGMC; format: cell-based, human; details: peptide 500 nM, 5 μM, and 50 μM, 72 hours, FIG. 7
Protocol: Specifically, HHGMC (human hair germinal matrix cell, Sciencell, USA) was seeded in a 6-well culture plate at 4×10^5 cells/well and then cultured in MSC complete medium (mesenchymal stem cell complete media) for 24 hours. Next, the medium was replaced with serum free MSC complete medium and cultured again for 24 hours. Then, the HHGMC was treated with the peptide of SEQ ID NO: 1 prepared in the Preparation Example at concentrations of 500 nM, 5 μM, and 50 μM, respectively, and cultured at 37° C. for 72 hours. As a positive control, EGF was treated at a concentration of 50 nM, and as a negative control, HHGMC without any treatment was used. After washing with PBS, RNA was isolated by treating with 300 ? of easy blue (intron, Korea). Next, cDNA was synthesized using a cDNA synthesis kit (enzynomics, Korea) by quantification using nano drop, and PCR was performed using primers for MSX2 (base sequences of the primer are listed in Table 4 below) and PCR premix (enzynomics, Korea). Electrophoresis was performed on a 1.5% agarose gel, and MSX2 mRNA was detected using a band analysis system (Bio-Rad gel image system).

[11] = test system: β-catenin; assay: Western blotting of β-catenin moved to the nucleus in HHFDPC; format: cell-based, human; details: HHFDPC nuclear protein, peptide 500 nM, 5 μM, and 50 μM, 24 hours, FIG. 3
Protocol: In addition, in addition to p-AKT and p-ERK, in order to confirm the activation of β-catenin, which is known to affect cell proliferation and differentiation, whether β-catenin moved into the nucleus was confirmed through Western blotting. Specifically, the HHFDPC as in [Experiment Example 1-1] was seeded in a 6-well culture plate at an amount of 4×10^5 cells/well, cultured in MSC complete medium (mesenchymal stem cell complete media) for 24 hours. Next, the medium was replaced with serum free MSC complete medium and cultured again for 24 hours. Then, the HHFDPC was treated with the peptide of SEQ ID NO: 1 prepared in the Preparation Example at concentrations of 500 nM, 5 μM, and 50 μM, respectively, and cultured at 37° C. for 24 hours. As a positive control, minoxidil was treated at a concentration of 1 μM, and as a negative control, HHFDPC without any treatment was used. After washing with PBS, proteins in the nucleus were isolated using a nuclear protein extraction kit (Thermo scientific, USA). After electrophoresis using a 10% SDS-PAGE gel, it was transferred to a PVDF membrane and blocked using 5% skim milk at room temperature for 30 minutes. […] After washing again with 0.1% PBS-T (0.1% Tween-20 in PBS) three times for 15 minutes each, β-catenin was detected by treatment with ECL solution (GE Healthcare, USA).

[12] = test system: HHFDPC (human hair follicle dermal papilla cells); assay: MTT proliferation assay in dermal papilla cells; format: cell-based; details: peptide 500 nM, 5 μM, and 50 μM, 72 hours, vs untreated control, FIG. 1
Protocol: While culturing human hair follicle dermal dermal papilla cells (HHFDPC), the absorbance was measured after treatment with the peptide of the present invention to confirm whether there was an effect of promoting the proliferation of the HHFDPC dermal papilla cells.
Specifically, HHFDPC (Sciencell, USA) was seeded at 4×10^3 cells/well in a 96-well culture plate, cultured in MSC complete medium (mesenchymal stem cell complete media, Sciencell, USA) for 24 hours, and then the medium was replaced with serum free MSC complete medium and cultured for another 24 hours. Then, the HHFDPC was treated with the peptide of SEQ ID NO: 1 prepared in the Preparation Example at concentrations of 500 nM, 5 μM, and 50 μM, respectively, and cultured at 37° C. for 72 hours. As a positive control, minoxidil was treated at a concentration of 1 μM, and as a negative control, HHFDPC without any treatment was used. Then, 10 ? of 5 mg/mL MTT solution was added and cultured in a 37° C. CO2 incubator for 4 hours to stain the cells. After removing the medium, the cells were treated with 100 μl of DMSO and shaken for 10 minutes, and the number of HHFDPC cells was confirmed by measuring absorbance at a wavelength of 540 nm using a spectrophotometer.

GGVPG [peptide of the present invention]
amount of LEF-1 mRNA [1]: increased further compared to the control group without any treatment
amount of cyclin D1 mRNA [2]: increased further compared to the control group without any treatment
amount of c-Myc mRNA [3]: increased further compared to the control group without any treatment
amount of Keratin 19 mRNA [4]: increased further compared to the control group that did not receive any treatment
phosphorylation of ERK (p-ERK) [5]: increased compared to the control group not treated with the peptide
phosphorylation of AKT (p-AKT) [6]: increased compared to the control group not treated with the peptide
amount of Keratin 14 mRNA [7]: increased further compared to the control group that did not receive any treatment
amount of DKK-1 protein [8]: reduced
amount of Ha3-II mRNA [9]: increased further compared to the control group that did not receive any treatment
amount of MSX2 mRNA [10]: increased further compared to the untreated control group
migration of β-catenin to the nucleus (activation of β-catenin) [11]: migration due to activation of β-catenin increased
proliferation of HHFDPC (absorbance at 540 nm, MTT) [12]: promoted depending on the concentration of the treated peptide
